Results published in patent publication US20230233576A1, “ECLITASERTIB FOR USE IN TREATING CONDITIONS INVOLVING SYSTEMIC HYPERINFLAMMATORY RESPONSE” (priority 2020, published 2023).

System: adult participants hospitalized for severe COVID-19
Assay: Phase 1b severe COVID-19 study: ECG abnormalities (PCSA)
Format: in vivo, human
Conditions: 600 mg
Experimental: Physical examination including lung auscultation and assessment of consciousness, vital sign, electrocardiogram (ECG) parameters were measured per protocol.
For laboratory parameters (hematology, clinical chemistry, and urinalysis), vital signs, and ECG, incidences of potentially clinically significant abnormality (PCSA) values, actual values and change from baseline were summarized by treatment group.
For all laboratory, vital signs and ECG parameters, raw data and change from baseline were summarized in descriptive statistics by treatment group and scheduled time of measurement, with the exception of AST, ALT and alkaline phosphatase: instead of summarizing data in descriptive statistics, participants' profiles were presented through graphics by treatment group and with a color code to identify sites. The reason was that blood samples were processed by local laboratories with different normal ranges. For the rest of clinical laboratory these parameters it is reasonable to pool data as they are standard procedure and no significant differences in normal ranges were expected.

[1] = individual participant 70.0 kg, Discharge Before Day 15
[2] = individual participant 87.2 kg, Discharge Before Day 15
[3] = individual participant 120.0 kg, Day 15
[4] = individual participant 125.0 kg, Discharge Before Day 15

CN1C(=O)[C@@H](NC(=O)c2nnc(Cc3ccccc3)[nH]2)COc2cccnc21 [RIPKl Inhibitor]
HR (bpm) Delta (change from baseline) [1]: −25 bpm | HR (bpm) Value [1]: 76 bpm | PR % change from baseline [1]: 0.0% | PR (ms) Value [1]: 120 ms | QRS % change from baseline [1]: −38% | QRS (ms) Value [1]: 100 ms | QT (ms) Delta (change from baseline) [1]: 100 ms | QT (ms) Value [1]: 460 ms | QTcB (ms) Delta (change from baseline) [1]: 50 + ms | QTcB (ms) Value [1]: 517 ++ ms | QTcF (ms) Delta (change from baseline) [1]: 75 ++ ms | QTcF (ms) Value [1]: 495 ++ ms | HR (bpm) Delta (change from baseline) [2]: 18 bpm | HR (bpm) Value [2]: 86 bpm | PR % change from baseline [2]: 0.0% | PR (ms) Value [2]: 150 ms | QRS % change from baseline [2]: 25.0% | QRS (ms) Value [2]: 100 ms | QT (ms) Delta (change from baseline) [2]: 30 ms | QT (ms) Value [2]: 370 ms | QTcB (ms) Delta (change from baseline) [2]: 81 ++ ms | QTcB (ms) Value [2]: 443 ms | QTcF (ms) Delta (change from baseline) [2]: 63 ++ ms | QTcF (ms) Value [2]: 417 ms | HR (bpm) Delta (change from baseline) [3]: 0 bpm | HR (bpm) Value [3]: 69 bpm | PR % change from baseline [3]: 31.9% | PR (ms) Value [3]: 124 ms | QRS % change from baseline [3]: −28% | QRS (ms) Value [3]: 82 ms | QT (ms) Delta (change from baseline) [3]: 4 ms | QT (ms) Value [3]: 482 ms | QTcB (ms) Delta (change from baseline) [3]: 4 ms | QTcB (ms) Value [3]: 518 ++ ms | HR (bpm) Delta (change from baseline) [4]: −6 bpm | HR (bpm) Value [4]: 77 bpm | PR % change from baseline [4]: 0.0% | PR (ms) Value [4]: 160 ms | QRS % change from baseline [4]: −4.8% | QRS (ms) Value [4]: 80 ms | QT (ms) Delta (change from baseline) [4]: 118 ms | QT (ms) Value [4]: 466 ms | QTcB (ms) Delta (change from baseline) [4]: 121 ++ ms | QTcB (ms) Value [4]: 530 ++ ms
